Assay results as given in ChEMBL document CHEMBL3352071, “Benzimidazoles: novel mycobacterial gyrase inhibitors from scaffold morphing” (ACS Med Chem Lett, 2014).
Converted amounts (≈) assume the structure as drawn.

Columns and labels:
Type in all cases: functional
[1] = tested on: Mycobacterium tuberculosis; assay: Antimicrobial activity against 5-(((3S,4R)-3-fluoro-1-(2-(7-methoxy-2-oxo-1,5-naphthyridin-1(2H)-yl)ethyl)piperidin-4-ylamino)methyl)-2-methylnicotinonitrile resistant Mycobacterium tuberculosis H37Rv ATCC 27294 containing DNA gyrase D89N mutant
[2] = tested on: Mycobacterium tuberculosis; assay: Antimicrobial activity against 2-oxo-1-(2-(4-((3-oxo-3,4-dihydro-2H-pyrido[3,2-b][1,4]oxazin-6-yl)methylamino)piperidin-1-yl)ethyl)-1,2-dihydroquinoline-7-carbonitrile resistant Mycobacterium tuberculosis H37Rv ATCC 27294 containing DNA gyrase A74V mutant
[3] = tested on: Mycobacterium tuberculosis; assay: Antimicrobial activity against moxicillin resistant Mycobacterium tuberculosis H37Rv ATCC 27294 containing DNA gyrase G88N mutant

Row | SMILES | MIC [1] | MIC [2] | MIC [3]
1 | COc1cnc2ccc(=O)n(CCN3CCC(c4nc5cc(C(F)(F)F)ccc5[nH]4)CC3)c2c1 | 25 µM (≈ 11.8 µg/mL) | 50 µM (≈ 23.6 µg/mL) | 0.78 µM (≈ 0.368 µg/mL)
2 | N#Cc1ccc2ccc(=O)n(CCN3CCC(NCc4ccc5c(n4)NC(=O)CO5)CC3)c2c1 | >100 µM | 4 µM (≈ 1.83 µg/mL) | <0.19 µM
3 | COc1cnc2ccc(=O)n(CCN3CCC(c4nc5cc(Cl)c(F)cc5[nH]4)CC3)c2c1 | 25 µM (≈ 11.4 µg/mL) | 100 µM (≈ 45.6 µg/mL) | 0.06 µM (≈ 0.0274 µg/mL)
4 | NNC(=O)c1ccncc1 [ISONIAZID] | 0.03 µM (≈ 0.00411 µg/mL) | 0.06 µM (≈ 0.00823 µg/mL) | 0.06 µM (≈ 0.00823 µg/mL)
5 | O=c1ccc2ncc(F)cc2n1CCN1CCC(NCc2ccc(C(F)(F)F)nc2)CC1 | >100 µM | 2 µM (≈ 0.899 µg/mL) | <0.19 µM
6 | CO[C@H]1/C=C/O[C@@]2(C)Oc3c(C)c(O)c4c(O)c(c(/C=N/N5CCN(C)CC5)c(O)c4c3C2=O)NC(=O)/C(C)=C\C=C\[C@H](C)[C@H](O)[C@@H](C)[C@@H](O)[C@@H](C)[C@H](OC(C)=O)[C@@H]1C [RIFAMPIN] |  | 0.008 µM (≈ 0.00658 µg/mL) | 0.008 µM (≈ 0.00658 µg/mL)
7 | COc1c(N2C[C@@H]3CCCN[C@@H]3C2)c(F)cc2c(=O)c(C(=O)O)cn(C3CC3)c12 [MOXIFLOXACIN] | 2 µM (≈ 0.803 µg/mL) | 0.25 µM (≈ 0.1 µg/mL) | 4 µM (≈ 1.61 µg/mL)
8 | NS(=O)(=O)c1ccc(Oc2cnc3ccc(=O)n(CCN4CCC(c5nc6cc(C(F)(F)F)ccc6[nH]5)CC4)c3c2)cc1 | 12.5 µM (≈ 7.66 µg/mL) | 25 µM (≈ 15.3 µg/mL) | 0.39 µM (≈ 0.239 µg/mL)
9 | COc1cnc2ccc(=O)n(CCN3CCN(c4nc5cc(C#N)c(C)cc5[nH]4)CC3)c2c1 | 100 µM (≈ 44.4 µg/mL) | >100 µM | 1.56 µM (≈ 0.692 µg/mL)
10 | COc1cnc2ccc(=O)n(CCN3CCC(c4nc5cc(C#N)c(C)cc5[nH]4)CC3)c2c1 | 100 µM (≈ 44.3 µg/mL) | >100 µM | 0.78 µM (≈ 0.345 µg/mL)
11 | O=C(O)c1cn(C2CC2)c2cc(N3CCNCC3)c(F)cc2c1=O [CIPROFLOXACIN] | 16 µM (≈ 5.3 µg/mL) | 0.5 µM (≈ 0.166 µg/mL) | 8 µM (≈ 2.65 µg/mL)
